The test system of series [1] is blood-brain and blood-CSF barriers. Put plainly: Self-inhibition experiments: [3H]-ADMA uptake with 0.5-500 μM unlabelled ADMA and kinetic constants (Km, Vmax, Kd). The format is in vivo, adult male BALB/c mice. Further details: [3H] ADMA, hippocampus / [3H] ADMA, thalamus: unit not given beside the values.
Another series deals with CAT-1. The following applies: CAT-1 transports ADMA; cited from earlier work.
Another series relates to NO production. Further details: method as in PMID 17082183. The following applies: cited from earlier work.
Series [2] concerns blood-brain and blood-CSF barriers. The following applies: male, BALB/c, mouse, in vivo, 10 min. As for the experimental part: (§1) The in situ brain/choroid plexus perfusion method was performed as previously described and will only be briefly detailed here. […] At the end of the perfusion period a CSF sample was taken from the cisterna magna, the animal was decapitated, the brain removed and samples taken under a Leica S4E L2 stereomicroscope (Leica; Buckinghamshire, UK). […] The circumventricular organs (CVOs) including the choroid plexus, pituitary gland and pineal gland were also sampled. Brain samples were also taken for capillary depletion analysis.
It is specifically used in brain samples (including brain homogenate and brain supernatant) to measure the vascular space at all perfusion time points. At later time points, in particular, it may also represent the capillary endothelial cell volume and/ or diffusion across the brain capillary wall and into the brain interstitial fluid. In the pellet samples it will measure extracellular fluid and may also represent capillary endothelial cell volume. […] It may also represent any accumulation into the cells of the choroid plexus.

The nature of series [3]: In situ brain/choroid plexus perfusion with capillary depletion: CNS uptake of [3H]-arginine in absence and presence of transporter inhibitors. Type of series: in vivo, adult male BALB/c mice. Further details: Difference (Arginine - Sucrose): unit not given here. The following applies: male, BALB/c, mouse, 10 mins, 5ml/min, per mouse. The protocol:
as §1
(§2) Both the physiological capillary depletion buffer and dextran solution were maintained at 4 °C to halt any cell metabolism and transport processes, and to reduce any cellular or protein damage due to heat generated from the homogenisation process. The whole brain homogenate was then taken for dextran density centrifugation (5,400 x g) and 4 °C to produce an endothelial cell-enriched pellet and supernatant containing brain parenchyma.
(§3) The transporter proteins these inhibitors target are listed in S1 Table in S1 File.
(§4) % change=RTissue−RInhibition /RTissue× 100 (2)

The test system of series [4] is blood-brain and blood-CSF barriers. The description is as above. Type of series: in vivo, adult male BALB/c mice. Further details: Difference (Arginine - Sucrose): unit not given here. The following applies: for uptake of [3H]-arginine: [14C]-sucrose corrected; for Arginine, tissue/plasma ratio / Difference (Arginine - Sucrose): 10 mins, 5ml/min, per mouse. The protocol:
as §1, §2, §3, §4

Where [5] appears, read: CONTROL, 10 mins, 5ml/min, single mice.

SMILES strings stand for the structures. Several values for one entry are separate records, joined by “and”; a condition that tells them apart may be missing. Equal entries are not always repeated. Where two headings read alike, the source gives them in different places.

As usually defined, the Km is the substrate concentration at which the rate is half of its maximum.

On to `CN(C)C(N)=NCCC[C@H](N)C(=O)O.Cl.Cl` [unlabelled ADMA, N^G,N^G-dimethylarginine dihydrochloride], for which the “decrease of [3H]-ADMA uptake” value in series [1] (500 μM unlabelled ADMA, frontal cortex) came to 79.9%. Also, in series [1] (0.5, 3.0, 10, 100 and 500μM un-labelled ADMA, all brain regions), the “effect on uptake of [3H]-ADMA (62.5 nM)” value was “significantly self-inhibited”. Further, in series [1] (setting [5]), the “Difference ([3H] ADMA minus [14C] Sucrose), hippocampus” value was 0.1991 and 0.2866 and 0.2044 and 0.2062; the “Difference ([3H] ADMA minus [14C] Sucrose), hypothalamus” value was 0.21 and 0.3614 and 0.2746 and 0.3021; the “Difference ([3H] ADMA minus [14C] Sucrose), occipital cortex” value was 0.1943 and 0.2753 and 0.1841 and 0.2419 and 0.2303; the “Difference ([3H] ADMA minus [14C] Sucrose), thalamus” value is 0.1695 and 0.2656 and 0.1763 and 0.2233 and 0.2154. In addition, in series [1] (setting [5]), the “[3H] ADMA, hippocampus” value was 0.2134 and 0.305 and 0.2049 and 0.2208 and 0.2239; the “[3H] ADMA, hypothalamus” value is 0.2341 and 0.3969 and 0.298 and 0.3627 and 0.4134; the “[3H] ADMA, occipital cortex” value is 0.2132 and 0.2962 and 0.2074 and 0.2625 and 0.2565; the “[3H] ADMA, supernatant” value is 0.1192 and 0.1611 and 0.1028 and 0.139 and 0.1685. Further, in series [1] (setting [5]), the “[3H] ADMA, thalamus” value was 0.1804 and 0.2881 and 0.1916 and 0.2507 and 0.2348. In addition, the Km with CAT-1 is 183 ± 21 µM. Moreover, the “inhibition of NO production” value in the series with NO production (normal ADMA concentrations within cells) is 10%. Moreover, the “inhibition of NO production” value with NO production (plasma ADMA concentrations higher than normal) is recorded as 70%.
As for `OC[C@H]1O[C@@](CO)(O[C@H]2O[C@H](CO)[C@@H](O)[C@H](O)[C@H]2O)[C@@H](O)[C@@H]1O` [[^14C]-sucrose, sucrose], the “distribution into capillary endothelial cells, times lower than into choroid plexus” value in series [2] amounted to 31.4 times.
With `N=C(N)NCCC[C@H](N)C(=O)O` [[^3H]-arginine, L-arginine], the Kp at 10 min amounted to 0.607 in series [3] (cerebellum, Arginine, tissue/plasma ratio, cerebellum, + 4mM BCH); 0.575 in series [3] (cerebellum, Difference (Arginine - Sucrose), cerebellum, + 4mM BCH); 1.85 in series [3] (choroid plexus, Difference (Arginine - Sucrose), choroid plexus, + 4mM BCH); 0.649 in series [3] (frontal cortex, Arginine, tissue/plasma ratio, frontal cortex, + 4mM BCH); 0.617 in series [3] (frontal cortex, Difference (Arginine - Sucrose), frontal cortex, + 4mM BCH); 0.0351 in series [3] (frontal cortex, with L-homoarginine 20 mM in the artificial plasma, Arginine, tissue/plasma ratio, frontal cortex, + 20mM L-Homoarginine). Further, the Kp at 10 min in series [3] (hippocampus, Arginine, tissue/plasma ratio, hippocampus, + 4mM BCH) was 0.477; in series [3] (hippocampus, Difference (Arginine - Sucrose), hippocampus, + 4mM BCH) it was 0.457; in series [3] (occipital cortex, Arginine, tissue/plasma ratio, occipital cortex, + 4mM BCH), 0.631; in series [3] (occipital cortex, Difference (Arginine - Sucrose), occipital cortex, + 4mM BCH), 0.6; in series [3] (whole brain homogenate, Arginine, tissue/plasma ratio, homogenate, + 4mM BCH), 0.353; in series [3] (whole brain homogenate, Difference (Arginine - Sucrose), homogenate, + 4mM BCH), 0.332. Besides, the Kp at 10 min, […] turned out to be 0.0312 in series [3] (cerebellum, with 20 mM L-homoarginine, Arginine, tissue/plasma ratio, cerebellum, + 20mM L-Homoarginine); 2.01 in series [3] (choroid plexus, Arginine, tissue/plasma ratio, choroid plexus, + 4mM BCH); 0.0199 in series [3] (occipital cortex, with 20 mM L-homoarginine, Arginine, tissue/plasma ratio, occipital cortex, + 20mM L-Homoarginine); 0.0216 in series [3] (with 20 mM L-homoarginine, Arginine, tissue/plasma ratio, supernatant, + 20mM L-Homoarginine). For the same molecule, in series [4] (10 minutes), the “uptake into frontal cortex, times higher than into CSF” value turned out to be 5.7 times. For the same molecule, the “uptake into pellet, times lower than into choroid plexus” value in series [4] (10 minutes) turned out to be 39.5 times. For the same molecule, the “uptake of [3H]-arginine” value is 9.53 ± 2.41 ml.100g^-1 in series [4] (CSF, 10 minutes); 6.47 ± 1.018 ml.100g^-1 in series [4] (capillary endothelial cell enriched pellet, 10 minutes); 255.86 ± 30.41 ml.100g^-1 in series [4] (choroid plexus, 10 minutes); 54.65 ± 9.21 ml.100g^-1 in series [4] (frontal cortex, 10 minutes). Further, the “Arginine, tissue/plasma ratio” value in series [4] (caudate nucleus) is 0.6618 and 0.8652 and 0.401 and 0.4938 and 0.3347 and 0.5216; in series [4] (choroid plexus), 3.243 and 3.765 and 2.2598 and 3.422 and 1.518 and 2.959; in series [4] (frontal cortex), 0.8204 and 0.8688 and 0.3825 and 0.5285 and 0.3141 and 0.5494; in series [4] (hippocampus) it was 0.5129 and 0.6918 and 0.3896 and 0.4547 and 0.2706 and 0.4979; in series [4] (hypothalamus), 0.9811 and 1.538 and 0.3381 and 0.6951 and 0.2905 and 0.3696; in series [4] (occipital cortex) it was 0.6317 and 0.7248 and 0.327 and 0.4186 and 0.2687 and 0.5347. Further, the “Arginine, tissue/plasma ratio” value is 3.254 and 2.641 and 1.189 and 1.192 and 1.144 and 2.275 in series [4] (pituitary gland); 0.9502 and 1.029 and 0.4051 and 0.5618 and 0.2525 and 0.5368 in series [4] (thalamus). Also, the “Difference (Arginine - Sucrose)” value in series [4] (caudate nucleus) was 0.6456 and 0.7471 and 0.378 and 0.4593 and 0.3101 and 0.4829; in series [4] (choroid plexus), 3.028 and 3.467 and 2.014 and 2.791 and 1.394 and 2.658; in series [4] (frontal cortex), 0.7931 and 0.8428 and 0.3551 and 0.4902 and 0.2926 and 0.505; in series [4] (hippocampus), 0.4962 and 0.6689 and 0.3625 and 0.4201 and 0.2493 and 0.4621; in series [4] (hypothalamus), 0.9489 and 1.477 and 0.3149 and 0.634 and 0.2579 and 0.3397; in series [4] (occipital cortex), 0.6113 and 0.7014 and 0.3051 and 0.3893 and 0.251 and 0.4973. For the same molecule, the “Difference (Arginine - Sucrose)” value in series [4] (pineal gland) was 1.49 and 0.1187 and 0.66 and 1.347 and 0.9026 and 0.5878; in series [4] (pituitary gland), 3.08 and 2.441 and 0.973 and 1.116 and 1.019 and 2.001; in series [4] (thalamus), 0.929 and 0.9992 and 0.362 and 0.5168.

The values above are taken from PMC12157126, “Saturation kinetics and specificity of transporters for L-arginine and asymmetric dimethylarginine (ADMA) at the blood-brain and blood-CSF barriers” (PLOS One, 2025).
